Publication PMC8241654 (Cell, 2021)

Test system: HLA class I
Format: cell-based, Human

MIAQYTSAL [B7 COVID 16]
HLA class I stabilization across alleles (in words): can stabilize a number of HLA class I alleles
